Data reported in patent US10143681B2, “Factor XIa inhibitors” (MERCK SHARP & DOHME CORP., priority 2016, dated 2018).

Key:
human Factor XIa = human Factor XIa (Homo sapiens (Human), UniProt P03951); assay: Factor XIa Assay; assay type: biochemical; conditions: for IC50: human Factor XIa 0.04 nM, 30 min pre-incubation at 25° C., substrate GPR-AFC, read-out: FXIa IC50; for inhibition at 1 µM: @ 1000 nM compound, read-out: FXIa % Inh. @ 1000 nM
Method: (§1) The effectiveness of a compound of the present invention as an inhibitor of Coagulation Factor XIa can be determined using a relevant purified serine protease, and an appropriate synthetic substrate. The rate of hydrolysis of the chromogenic or fluorogenic substrate by the relevant serine protease was measured both in the absence and presence of compounds of the present invention. Assays were conducted at room temperature or at 37° C. […] A decrease in the rate of fluorescence change in the presence of inhibitor is indicative of enzyme inhibition. Such methods are known to one skilled in the art. The results of this assay are expressed as the half-maximal inhibitory concentrations (IC50), or the inhibitory constant, Ki.
Compounds were pre-incubated for 30 minutes at 25° C. with human (0.04 nM) Factor XIa in 50 mM HEPES buffer with 150 mM sodium chloride, 5 mM calcium chloride, 0.1% PEG 8000, pH 7.4. Factor XIa enzymatic activity was determined by addition of the substrate glycine-proline-arginine-7-amido-4-trifluoromethylcoumarin (GPR-AFC) and measurement of the fluorescence at 400/505 nm after a 60 minute incubation at 25° C. The % inhibition for each data point was calculated from the data and analyzed using the log (inhibitor) vs. response four parameters equation to determine the half-maximal inhibitory concentrations (IC50). The IC50 were converted to equilibrium inhibitory constants (Ki) using the Cheng-Prusoff equation.

Human plasma kallikrein = Human plasma kallikrein (Homo sapiens (Human), UniProt P03952); assay: Kallikrein Assay; assay type: biochemical; conditions: purified Human plasma kallikrein 0.5 nM, substrate Acetyl-K-P-R-AFC; read-out: P. KLK IC50
Method: as §1, with “Kallikrein” for “Coagulation Factor XIa”
Kallikrein determinations were made in 50 mM HEPES buffer at pH 7.4 containing 150 mM NaCl, 5 mM CaCl2, and 0.1% PEG 8000 (polyethylene glycol; Fisher Scientific). Determinations were made using purified Human plasma kallikrein at a final concentration of 0.5 nM (Enzyme Research Laboratories) and the synthetic substrate, Acetyl-K-P-R-AFC (Sigma # C6608) at a concentration of […].
Times required to achieve equilibration between enzyme and inhibitor were determined in control experiments. The reactions were performed under linear progress curve conditions and fluorescence increase measured at 405 Ex/510 Em nm. […] IC50 was determined by inflection point from a four parameter logistic curve fit. Ki was calculated using the Cheng Prusoff equation, Ki=IC50/(1+([S]/Km)).

[1] = system: Human plasma (intrinsic coagulation cascade); assay: Activated Partial Thromboplastin Time (aPTT) Assay; conditions: concentration that causes a 50% (1.5×) increase of clot time over vehicle
Method: Activated partial thromboplastin time (aPTT) is a clotting test that measures the intrinsic coagulation cascade. The test is performed in sodium citrated plasma. Human plasma is made by collecting blood from healthy donors of both genders into Na citrate tubes (Sarstedt coagulation 9NC/10 ml). Blood is centrifuged at 1500×g and the plasma is collected. aPTT is checked on each individual donor and those within the normal range (28-40 seconds) are pooled, aliquoted, and stored at −80 C. Test samples are prepared by spiking inhibitors or vehicle into plasma. These spiked samples are then run on a coagulation analyzer (STA-R Evolution, Stago Diagnostica). In general, the analyzer performs the following steps: Factor XII is activated by addition of ellagic acid (Pacific Hemostasis), and then time to clot is measured after re-calcification of the sample. Inhibition of FXI will cause aPTT clot time to be prolonged. The data is expressed as percent increase over vehicle control clot time and the concentration that causes a 50% (1.5×) percent increase of clot time are reported.

human Factor XIa, sequence (P03951 388-625): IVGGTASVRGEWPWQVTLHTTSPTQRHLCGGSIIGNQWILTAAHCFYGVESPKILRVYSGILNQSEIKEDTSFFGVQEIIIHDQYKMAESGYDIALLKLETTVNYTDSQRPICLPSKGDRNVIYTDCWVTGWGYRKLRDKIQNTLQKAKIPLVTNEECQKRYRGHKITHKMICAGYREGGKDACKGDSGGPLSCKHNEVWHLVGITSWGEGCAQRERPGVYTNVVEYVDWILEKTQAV
human Factor XIa, sequence (P03951 19-387 partner): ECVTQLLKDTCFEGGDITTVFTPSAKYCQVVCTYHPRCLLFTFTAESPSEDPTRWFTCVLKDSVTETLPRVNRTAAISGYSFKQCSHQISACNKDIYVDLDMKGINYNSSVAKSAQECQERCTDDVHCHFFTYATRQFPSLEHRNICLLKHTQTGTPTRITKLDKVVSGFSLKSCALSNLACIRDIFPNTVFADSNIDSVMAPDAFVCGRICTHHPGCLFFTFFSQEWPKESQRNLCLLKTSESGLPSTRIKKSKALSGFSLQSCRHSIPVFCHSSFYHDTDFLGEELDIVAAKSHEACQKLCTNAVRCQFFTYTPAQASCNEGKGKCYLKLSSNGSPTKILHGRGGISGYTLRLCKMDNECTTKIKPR
Human plasma kallikrein, sequence (P03952 391-638): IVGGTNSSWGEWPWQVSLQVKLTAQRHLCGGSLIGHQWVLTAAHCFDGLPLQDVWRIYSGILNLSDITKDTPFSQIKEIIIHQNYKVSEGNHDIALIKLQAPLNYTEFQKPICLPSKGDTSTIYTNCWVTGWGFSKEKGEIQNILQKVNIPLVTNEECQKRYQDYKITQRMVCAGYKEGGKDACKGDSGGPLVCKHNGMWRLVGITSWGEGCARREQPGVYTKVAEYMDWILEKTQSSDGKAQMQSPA
Human plasma kallikrein, sequence (P03952 20-390 partner): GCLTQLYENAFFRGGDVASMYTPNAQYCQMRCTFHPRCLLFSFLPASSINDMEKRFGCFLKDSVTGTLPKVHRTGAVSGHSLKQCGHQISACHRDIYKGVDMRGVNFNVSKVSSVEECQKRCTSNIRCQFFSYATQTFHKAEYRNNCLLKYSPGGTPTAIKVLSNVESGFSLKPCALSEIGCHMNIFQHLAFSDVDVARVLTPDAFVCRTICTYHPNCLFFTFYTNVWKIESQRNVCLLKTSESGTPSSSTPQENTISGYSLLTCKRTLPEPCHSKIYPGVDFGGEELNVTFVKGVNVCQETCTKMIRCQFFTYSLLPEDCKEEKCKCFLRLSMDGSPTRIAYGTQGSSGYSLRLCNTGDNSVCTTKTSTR

Structure (SMILES) | IC50 (human Factor XIa) [nM] | IC50 (Human plasma kallikrein) [nM] | inhibition at 1 µM (human Factor XIa) [%] | aPTT (1.5x) [1] [µM]
O=C(O)c1ccc(NC(=O)C(CC2CC2)c2ccc(-c3cc(Cl)ccc3OC(F)F)c[n+]2[O-])cc1 (single isomer, unassigned) [Example 6, (S)- or (R)-4-[(2-{5-[5-chloro-2-(difluoromethoxy)phenyl]-1-oxidopyridin-2-yl}-3-cyclopropylpropanoyl)amino] benzoic acid] | > 1000 |  | 30 | >100
COc1cc(C(CC2CC2)C(=O)Nc2ccc(C(=O)O)cc2)[n+]([O-])cc1-c1c(C(F)F)ccc(Cl)c1F [Example 69, (S)- and (R)-2-(1-((4-carboxyphenyl)amino)-3-cyclopropyl-1-oxopropan-2-yl)-5-(3-chloro-6-(difluoromethyl)-2-fluorophenyl)-4-methoxypyridine 1-oxide] |  |  |  | 1.92
O=C(O)c1ccc(NC(=O)[C@@H](CC2CCC2)c2ccc(-c3c(C(F)F)ccc(Cl)c3F)c[n+]2[O-])cc1 (mixture of isomers) [Example 3, (S)- and (R)-2-(1-((4-Carboxyphenyl)amino)-3-cyclobutyl-1-oxopropan-2-yl)-5-(3-chloro-6-(difluoromethyl)-2-fluorophenyl)pyridine 1-oxide] | 39 |  |  | >100
CCOc1ccc(Cl)c(F)c1-c1ccc(C(CC2CC2)C(=O)Nc2ccc(C(=O)O)cc2)[n+]([O-])c1 (single isomer, unassigned) [Example 8, (S)- or (R)-4-({2-[5-(3-chloro-6-ethoxy-2-fluorophenyl)-1-oxidopyridin-2-yl]-3-cyclopropylpropanoyl}amino) benzoic acid] | 968 |  |  | >100
O=C(O)c1ccc(NC(=O)C(CC2CC2F)c2ccc(-c3c(C(F)F)ccc(Cl)c3F)c[n+]2[O-])cc1 (single isomer, unassigned) [Example 92, 2-(1-((4-carboxyphenyl)amino)-3-(2-fluorocyclopropyl)-1-oxopropan-2-yl)-5-(3-chloro-6-(difluoromethyl)-2-fluorophenyl)pyridine 1-oxide] |  |  |  | 100
CC(C)Oc1ccc(Cl)c(F)c1-c1ccc(C(CC2CC2)C(=O)Nc2ccc(C(=O)O)cc2)[n+]([O-])c1 (single isomer, unassigned) [Example 16, (S)- or (R)-4-[(2-{5-[3-chloro-2-fluoro-6-(1-methylethoxy)phenyl]-1-oxidopyridin-2-yl}-3-cyclopropylpropanoyl)amino] benzoic acid] | > 1000 |  | 33 | >100
CC1(O)CC(CC(C(=O)Nc2ccc(C(=O)O)cc2)c2ccc(-c3c(C(F)F)ccc(Cl)c3F)c[n+]2[O-])C1 (single isomer, unassigned) [Example 85, 2-(1-((4-carboxyphenyl)amino)-3-(3-hydroxy-3-methylcyclobutyl)-1-oxopropan-2-yl)-5-(3-chloro-6-(difluoromethyl)-2-fluorophenyl)pyridine 1-oxide] |  |  |  | 1
CC1(O)CC(CC(C(=O)Nc2ccc(C(=O)O)cc2)c2ccc(-c3c(C(F)F)ccc(Cl)c3F)c[n+]2[O-])C1 (single isomer, unassigned) [Example 83, 2-(1-((4-carboxyphenyl)amino)-3-(3-hydroxy-3-methylcyclobutyl)-1-oxopropan-2-yl)-5-(3-chloro-6-(difluoromethyl)-2-fluorophenyl)pyridine 1-oxide] |  |  |  | 0.62
O=C(O)c1ccc(NC(=O)[C@@H](CC2CCC2)c2ccc(-c3c(C(F)F)ccc(Cl)c3F)c[n+]2[O-])cc1 (mixture of isomers) [Example 4, (S)- and (R)-2-(1-((4-Carboxyphenyl)amino)-3-cyclobutyl-1-oxopropan-2-yl)-5-(3-chloro-6-(difluoromethyl)-2-fluorophenyl)pyridine 1-oxide] |  |  |  | 0.55

Second part, led by results:

IC50 (human Factor XIa) [nM] | IC50 (Human plasma kallikrein) [nM] | inhibition at 1 µM (human Factor XIa) [%] | Structure (SMILES) | aPTT (1.5x) [1] [µM]
1.1 | 5.3 |  | O=C(O)c1ccc(NC(=O)C(CC2CC2C(F)F)c2ccc(-c3c(C(F)F)ccc(Cl)c3F)c[n+]2[O-])cc1 (single isomer, unassigned) [Example 90, 2-(1-((4-carboxyphenyl)amino)-3-(2-(difluoromethyl)cyclopropyl)-1-oxopropan-2-yl)-5-(3-chloro-6-(difluoromethyl)-2-fluorophenyl)pyridine 1-oxide] | 
 | 81 |  | O=C1CCC(CC(C(=O)Nc2ccc(C(=O)O)cc2)c2ccc(-c3c(OC(F)F)ccc(Cl)c3F)c[n+]2[O-])CC1 (single isomer, unassigned) [Example 33] | 
293 |  |  | O=C(O)c1ccc(NC(=O)C(CC2CC2)c2ccc(-c3cc(Cl)ccc3C(F)F)c[n+]2[O-])cc1 (single isomer, unassigned) [Example 28, (S)- or (R)-2-(1-((4-carboxyphenyl)amino)-3-cyclopropyl-1-oxopropan-2-yl)-5-(5-chloro-2-(difluoromethyl)phenyl)pyridine 1-oxide] | >100
0.38 |  |  | C[C@@H]1C[C@H]1C[C@@H](C(=O)Nc1ccc(C(=O)O)cc1)c1ccc(-c2c(OC(F)F)ccc(Cl)c2F)c[n+]1[O-] (single isomer, unassigned) [Example 56] | 1.34
0.61 |  |  | CC1CCC1CC(C(=O)Nc1ccc(C(=O)O)cc1)c1ccc(-c2c(OC(F)F)ccc(Cl)c2F)c[n+]1[O-] (single isomer, unassigned) [Example 105, 2-(1-((4-carboxyphenyl)amino)-3-(2-methylcyclobutyl)-1-oxopropan-2-yl)-5-(3-chloro-6-(difluoromethoxy)-2-fluorophenyl)pyridine 1-oxide] | 1.13
27.9 |  |  | O=C(O)c1ccc(NC(=O)C(CC2CC2F)c2ccc(-c3c(C(F)F)ccc(Cl)c3F)c[n+]2[O-])cc1 (single isomer, unassigned) [Example 91, 2-(1-((4-carboxyphenyl)amino)-3-(2-fluorocyclopropyl)-1-oxopropan-2-yl)-5-(3-chloro-6-(difluoromethyl)-2-fluorophenyl)pyridine 1-oxide] | 5.93
24 |  |  | CC(C)Oc1ccc(Cl)c(F)c1-c1ccc(C(CC2CC2)C(=O)Nc2ccc(C(=O)O)cc2)[n+]([O-])c1 (single isomer, unassigned) [Example 17, (R)- or (S)-4-[(2-{5-[3-chloro-2-fluoro-6-(1-methylethoxy)phenyl]-1-oxidopyridin-2-yl}-3-cyclopropylpropanoyl)amino] benzoic acid] | >100
100 |  |  | O=C(O)c1ccc(NC(=O)C(CC2CCCC2)c2ccc(-c3c(OC(F)F)ccc(Cl)c3F)c[n+]2[O-])cc1 (single isomer, unassigned) [Example 18, (S)- or (R)-4-[(2-{5-[3-chloro-6-(difluoromethoxy)-2-fluorophenyl]-1-oxidopyridin-2-yl}-3-cyclopentylpropanoyl)amino] benzoic acid] | >100
 | 37.6 |  | O=C(O)c1ccc(NC(=O)C(CC2CC2(F)F)c2ccc(-c3c(C(F)F)ccc(Cl)c3F)c[n+]2[O-])cc1 (single isomer, unassigned) [Example 77, 2-(1-((4-carboxyphenyl)amino)-3-(2,2-difluorocyclopropyl)-1-oxopropan-2-yl)-5-(3-chloro-6-(difluoromethyl)-2-fluorophenyl)pyridine 1-oxide] | 
